Measurements from US20230266302A1, “SYNTHESIS AND USE OF N-BENZYL SULFONAMIDES” (THE UNIVERSITY OF TULSA, priority 2020, published 2023).

How the values were obtained:
Test in all cases: ATP level assay (CellTiter-Glo), percent of control
Type in all cases: cell-based
H293 (kidney cancer) = conditions: two hour incubation; for activity at 100 µM: 2 h, compound alone, control DMSO, read-out: POC (percent of control) H293
Source text: (§1) In the present method, the method of using the available assays has been modified to measure the short-term effect of compounds of interest on ATP levels in the cells. […] In the modified method, the control and test cells are initially treated with the metabolic inhibitor for a period of about thirty minutes to about four hours. Typically, the treatment of the cells with the metabolic inhibitor is for one hour prior to adding the compound to be screened for anti-cancer properties. However, simultaneous treatment with the metabolic inhibitor and the compound being screened should provide satisfactory results. […] ATP synthesis in cells occurs over multiple biochemical pathways. These pathways are very responsive to metabolic inhibitors and/or changes in available nutrients. By incorporating a metabolic inhibitor which is known to impact certain pathways, the disclosed method provides for measurement of a compound's direct effects on the remaining metabolic pathways available for ATP synthesis in the cell.
(§2) Following treatment of the control and test cells with the metabolic inhibitor, the method calls for addition of the compound to be screened for anti-cancer properties to the cells. Following addition of the compound of interest, the assay is allowed to continue for about one hour to about four hours or depending on the luminescing agent up to eighteen hours. However, approximately 60 minutes will be sufficient to determine the ATP inhibiting effect of the compound to be screened on the cells. Following completion of the selected time period, the ATP level within the cell is determined. ATP levels can be determined by luminescence according to standard measuring procedures, i.e. the luminescence level of the assay from the living cells treated with the two component composition is compared to the luminescence level of the assay from the living cells without the two component composition, i.e., the control experiment. Thus, the ATP levels are determined without killing the cells during the incubation of the cells in the presence of the compound of interest. As a result, the measured reduction in ATP level corresponds directly to the inhibition of the metabolic pathways uninhibited by the metabolic blocker.
(§3) A wide variety of ATP luminescing detection reagents are available commercially. So long as the reagent produces a luminescence in the presence of ATP, the reagent will be suitable for use in the present method. Suitable reagents include but are not limited to any ATP dependent luciferase such as but not limited to firefly luciferase, other modified luciferase based reagents, i.e. luciferase derivatives. According to the rapid method for determining the anti-cancer activity of a compound, a sample of living cells is distributed across a number of testing wells. Typically, 96-well plates are used; however, the number of wells is not critical to the current method. When using a 96-well plate the number of living cells will commonly be about 20,000. The sample wells contain a cell growth medium to promote cell health and growth and an additive to prevent bacterial contamination of the wells. One common example of the cell growth medium is DMEM with 10% FBS as described above. One example of the additive to prevent bacterial contamination is a solution of penicillin G and streptomycin referred to commonly as Pen-Strep. The Pen-Strep solution typically contains 5000 units of penicillin G and 5000 micrograms of streptomycin. Thus, the rapid determination of anti-cancer compounds can be carried out using the following method. • The desired number of cells are distributed in a 96-well plate containing 100 μL DMEM plus 10% FBS with optional Pen-Strep. • After 24 hours, cells are treated with the compound of interest or a 5% solution of dimethyl sulfoxide (DMSO) in water as a control. • The time period for exposure to the compound of interest and the DMSO control will vary depending on the luminescing detection reagent. […]

NCI-H196 (lung cancer) = conditions: two hour incubation; for activity at 100 µM: NCI-H196, 2 h, compound alone, control DMSO, read-out: POC (percent of control) NCI-H196
Source text: as §1, §2, §3

[1] = test system: BxPC3 (pancreatic cancer); conditions: two hour incubation; for activity at 100 µM: Homo sapiens, BXPC-3, 2 h, compound alone, control DMSO, read-out: POC (percent of control) BxPC3
Source text: as §1, §2, §3

SkBr3 (breast cancer) = conditions: two hour incubation; for activity at 100 µM: Homo sapiens, SK-BR-3, 2 h, compound alone, control DMSO, read-out: POC (percent of control) SkBr3
Source text: as §1, §2, §3

T47D (breast cancer) = conditions: two hour incubation; for activity at 100 µM: Homo sapiens, T47D, 2 h, compound alone, control DMSO, read-out: POC (percent of control) T47D
Source text: as §1, §2, §3

MCF7 (breast cancer) = conditions: two hour incubation; for activity at 100 µM: Homo sapiens, MCF7, 2 h, compound alone, control DMSO, read-out: POC (percent of control) MCF7
Source text: as §1, §2, §3

HDF (normal cells) = conditions: two hour incubation; for activity at 100 µM: 2 h, compound alone, control DMSO, read-out: POC (percent of control) HDF
Source text: as §1, §2, §3

[2] = test system: MCF10A (non-cancerous breast); conditions: two hour incubation; for activity at 100 µM: Homo sapiens, MCF-10A, 2 h, compound alone, control DMSO, read-out: POC (percent of control) MCF10A
Source text: as §1, §2, §3

HeLa (cervical cancer) = conditions: two hour incubation; for activity at 100 µM: Homo sapiens, HeLa, 2 h, compound alone, control DMSO, read-out: POC (percent of control) HeLa
Source text: as §1, §2, §3

MDA-MB (breast cancer) = conditions: two hour incubation; for activity at 100 µM: 2 h, compound alone, control DMSO, read-out: POC (percent of control) MDA-MB
Source text: as §1, §2, §3

PC3 (prostate cancer) = conditions: two hour incubation; for activity at 100 µM: 2 h, compound alone, control DMSO, read-out: POC (percent of control) PC3
Source text: as §1, §2, §3

[3] = compound 100 uM + 2DG (about 10-20 mM)
[4] = compound 100 uM + rotenone (approximately 1.25 μM)

Row | SMILES | activity at 100 µM (H293 (kidney cancer)) [%] | POC (percent of control) H293 (H293 (kidney cancer); [3]) | POC (percent of control) H293 (H293 (kidney cancer); [4]) | activity at 100 µM (NCI-H196 (lung cancer)) [%] | POC (percent of control) NCI-H196 (NCI-H196 (lung cancer); [3]) | POC (percent of control) NCI-H196 (NCI-H196 (lung cancer); [4]) | activity at 100 µM [1] [%] | POC (percent of control) BxPC3 [1, 3] | POC (percent of control) BxPC3 [1, 4] | activity at 100 µM (SkBr3 (breast cancer)) [%] | POC (percent of control) SkBr3 (SkBr3 (breast cancer); [3]) | POC (percent of control) SkBr3 (SkBr3 (breast cancer); [4]) | activity at 100 µM (T47D (breast cancer)) [%] | POC (percent of control) T47D (T47D (breast cancer); [3]) | POC (percent of control) T47D (T47D (breast cancer); [4]) | activity at 100 µM (MCF7 (breast cancer)) [%] | POC (percent of control) MCF7 (MCF7 (breast cancer); [3]) | POC (percent of control) MCF7 (MCF7 (breast cancer); [4]) | activity at 100 µM (HDF (normal cells)) [%] | POC (percent of control) HDF (HDF (normal cells); [3]) | also measured
1 | Cn1cc(CNS(=O)(=O)c2ccc(Cl)cc2)c2ccccc21 [Compound 29, 4-chloro-N-[(1-methyl-1H-indol-3-yl)methyl]benzenesulfonamide] | 91.2 | 55% of control | 50.5% of control | 192 | 51.3% of control | 100.3% of control | 80.8 | 51.7% of control | 52.7% of control | 102 | 72.5% of control | 78.6% of control | 90 | 60.7% of control | 77.6% of control | 105 | 90.9% of control | 98% of control | 95.8 | 73% of control | POC (percent of control) HDF (HDF (normal cells); [4]): 81.5% of control; activity at 100 µM [2]: 78.9%; POC (percent of control) MCF10A [2, 3]: 46.2% of control; POC (percent of control) MCF10A [2, 4]: 62.7% of control; activity at 100 µM (HeLa (cervical cancer)): 80.9%; POC (percent of control) HeLa (HeLa (cervical cancer); [3]): 83.9% of control; POC (percent of control) HeLa (HeLa (cervical cancer); [4]): 93.1% of control; activity at 100 µM (MDA-MB (breast cancer)): 81.1%; POC (percent of control) MDA-MB (MDA-MB (breast cancer); [3]): 64.7% of control; POC (percent of control) MDA-MB (MDA-MB (breast cancer); [4]): 69.7% of control; activity at 100 µM (PC3 (prostate cancer)): 77.8%; POC (percent of control) PC3 (PC3 (prostate cancer); [3]): 67.5% of control; POC (percent of control) PC3 (PC3 (prostate cancer); [4]): 67% of control
2 | COc1ncccc1CNS(=O)(=O)c1ccccc1 [Compound 13, N-[(2-methoxypyridin-3-yl)methyl]benzenesulfonamide] | 101 | 69.4% of control | 81.1% of control | 87.6 | 127.4% of control | 99.7% of control | 91.2 | 74.1% of control | 55.3% of control | 101 | 87.2% of control | 96.5% of control | 84.3 | 88.8% of control | 90% of control | 127 | 89.7% of control | 116.5% of control | 96.5 | 104.2% of control | POC (percent of control) HDF (HDF (normal cells); [4]): 98.3% of control; activity at 100 µM [2]: 94.8%; POC (percent of control) MCF10A [2, 3]: 96.1% of control; POC (percent of control) MCF10A [2, 4]: 84% of control; activity at 100 µM (HeLa (cervical cancer)): 94.6%; POC (percent of control) HeLa (HeLa (cervical cancer); [3]): 90.7% of control; POC (percent of control) HeLa (HeLa (cervical cancer); [4]): 94.1% of control; activity at 100 µM (MDA-MB (breast cancer)): 101%; POC (percent of control) MDA-MB (MDA-MB (breast cancer); [3]): 81.9% of control; POC (percent of control) MDA-MB (MDA-MB (breast cancer); [4]): 103.8% of control; activity at 100 µM (PC3 (prostate cancer)): 82.2%; POC (percent of control) PC3 (PC3 (prostate cancer); [3]): 97.3% of control; POC (percent of control) PC3 (PC3 (prostate cancer); [4]): 101.2% of control
3 | Cc1ccc(S(=O)(=O)NCc2coc(C)n2)cc1 [Compound 21, 4-methyl-N-[(2-methyl-1,3-oxazol-4-yl)methyl]benzenesulfonamide] | 115 | 87.8% of control | 87% of control | 108 | 107.4% of control | 130.5% of control | 112 | 106.8% of control | 114.8% of control | 102 | 108.5% of control | 106.9% of control | 88.7 | 99.4% of control | 86.4% of control | 189 | 121.1% of control | 111% of control | 87.9 | 97.4% of control | POC (percent of control) HDF (HDF (normal cells); [4]): 113.6% of control; activity at 100 µM [2]: 108%; POC (percent of control) MCF10A [2, 3]: 92.8% of control; POC (percent of control) MCF10A [2, 4]: 120% of control; activity at 100 µM (HeLa (cervical cancer)): 101%; POC (percent of control) HeLa (HeLa (cervical cancer); [3]): 105.8% of control; POC (percent of control) HeLa (HeLa (cervical cancer); [4]): 109.4% of control; activity at 100 µM (MDA-MB (breast cancer)): 101%; POC (percent of control) MDA-MB (MDA-MB (breast cancer); [3]): 100.7% of control; POC (percent of control) MDA-MB (MDA-MB (breast cancer); [4]): 121.5% of control; activity at 100 µM (PC3 (prostate cancer)): 93.3%; POC (percent of control) PC3 (PC3 (prostate cancer); [3]): 131.7% of control; POC (percent of control) PC3 (PC3 (prostate cancer); [4]): 110.9% of control
